{
  "source": "patent US20220218614A1",
  "about": "“IONIZABLE CATIONIC LIPIDS AND LIPID NANOPARTICLES, AND METHODS OF SYNTHESIS AND USE THEREOF” (Tidal Therapeutics, Inc., priority 2020, published 2022)",
  "key": {"human CD3 T cells": {"tested_on": "human CD3 T cells", "assay": "Transfection of human CD3 T cells (CD8 and CD4 subsets) with Fab/Nb-targeted LNPs", "assay_type": "cell-based", "details": "targeted Lipid 8 LNP (Lipid 5 in Example 43), GFP mRNA approximately 2.5 μg/mL, approximately 24 hr", "procedure": "LNPs were prepared using the mixing process described in Example 6, the buffer exchange process described below in Example 21. Using methods similar to Example 12, hSP34 and TRX2 Fab-lipid conjugates and a non-T cell specific anti-HER2 lipid-conjugate (Nellis D F, Ekstrom D L, Kirpotin D B, Zhu J, Andersson R, Broadt T L, Ouellette T F, Perkins S C, Roach J M, Drummond D C, Hong K, Marks J D, Park J W and Giardina S L (2005) Preclinical manufacture of an anti-HER2 scFv-PEG-DSPE, liposome-inserting conjugate. 1. Gram-scale production and purification. Biotechnol Prog 21:205-220) were post-inserted at various densities (SP34 0.25-17 g/mol; TRX2 0.25-9 g/mol; SP34+TRX2 0.25-9 g/mol each conjugate; anti-HER2 17 g/mol) into LNPs containing Lipid 8 and anti-CD20 targeting CART mRNA. Transfections were performed with human CD3 T cells at approximately 2.5 μg/mL mRNA for approximately 24 hr. For FACS analysis T cells were stained with M1 antibody (Sigma, F3040) that bind a N-terminus FLAG-tag variant sequence on the TTR-023 CAR (sequence provided below) in addition to staining for CD69 (Biolegend, 310930) and CD4 (Biolegend, 344648) to differentiate CD8 from CD4 cells.\nLNPs were prepared using the mixing process described in Example 6, the buffer exchange process described in Example 21. Using methods similar to Example 12, hSP34, TRX2, and Ibalizumab Fab-lipid conjugates and a non-T cell specific anti-HER2 lipid-conjugate were post-inserted at various densities (specified in FIGS. 20A and 20B into LNPs containing Lipid 8 and Cy5/GFP mRNA. Transfections were performed with human CD3 T cells at approximately 2.5 μg/mL mRNA for approximately 24 hr and stained for CD69 (Biolegend, 310930) and CD4 (Biolegend, 344648) to differentiate CD8 from CD4 cells by FACS analysis.\nLNPs were prepared using the mixing process described in Example 6, the buffer exchange process described in Example 21. […] Levels of transfection of CD3 T cells was measured by flow cytometry. […]"}, "IFNγ": {"tested_on": "IFNγ", "assay": "Human IFNγ ELISA of T cell culture supernatants after LNP transfection", "assay_type": "cell-based", "details": "T cells approximately 24 hr after targeted LNPs at approximately 2.5 μg/mL mRNA", "procedure": "LNPs were prepared using the mixing process described in Example 6, the buffer exchange process described in Example 21. hSP34 and TRX2 Fab-lipid conjugates generated from methods described in Example 4 and a non-T cell specific anti-HER2 lipid-conjugate (Nellis D F, Ekstrom D L, Kirpotin D B, Zhu J, Andersson R, Broadt T L, Ouellette T F, Perkins S C, Roach J M, Drummond D C, Hong K, Marks J D, Park J W and Giardina S L (2005) Preclinical manufacture of an anti-HER2 scFv-PEG-DSPE, liposome-inserting conjugate. 1. Gram-scale production and purification. Biotechnol Prog 21:205-220) were post-inserted at various densities (SP34 0.6-17 g/mol; TRX2 3-9 g/mol; anti-HER2 17 g/mol) into LNPs containing Lipid 8, Cy5 labeled GFP mRNA and GFP mRNA (1:9 Cy5:GFP mass ratio) by adding conjugate and LNPs together and heating the solution without mixing in a thermal cycler at 60 C for 60 min and cooled to 4° C. for 3-5 min. […] After transfection, LNP binding efficiency (Cy5) and transfection efficiency (GFP) was evaluated by flow cytometry. Supernatants were measured for human IFNγ concentration using a commercially available ELISA kit under manufacturers recommended conditions (R&D Systems Duoset).\nIFN-γ was assayed using an R&D Duoset […] ELISA kit, PN DY285B. […] Optical density at 450 nm was read on a Spectramax M5 plate reader. […]"}},
  "note": "“Also recorded” adds a separate entry of the source.",
  "data": [
    {"substance": "SP34 NoDS Fab: anti-CD3 Fab without interchain disulfide, SEQ ID NO: 38 and 39", "values": [
      {"measurement": "% GFP transfection and GFP expression (MFI) of CD8 and CD4 T cells, in words", "setting": "human CD3 T cells", "result": "higher % transfection (FIG. 65E) and higher GFP expression levels (FIG. 65F) than the SP34 DS Fab; also recorded: higher % transfection (FIG. 67A) and higher GFP expression levels"}
    ]},
    {"substance": "TRX4: anti-CD3 TRX4 bDS Fab, SEQ ID NO: 50 and 51", "values": [
      {"measurement": "IFNγ secretion into supernatant, in words", "setting": "IFNγ", "result": "higher levels of IFNγ secretion than SP34"},
      {"measurement": "% GFP transfection and GFP expression (MFI) of CD8 and CD4 T cells, in words", "setting": "human CD3 T cells", "result": "lower levels of GFP expression"}
    ]}
  ]
}
